# Patent US20200371122A1, “BIOMARKER FOR SENESCENT CELLS” (Buck Institute for Research on Aging, priority 2017, published 2020)
# What was measured:
# [1] = tested on: IMR-90 fibroblasts; experiment: Oncogenic ras-induced senescence of IMR-90 fibroblasts; type: cell-based, human; conditions: RasV12 lentivirus, 7 days treatment
# Text: Senescence was induced by irradiation with 10 Gy of ionizing radiation. Non-senescent controls (proliferating or quiescent) were placed in the irradiator for an identical period of time without turning on the irradiator. Oncogene-induced senescence was induced via lentiviral overexpression of HRAS^V12, as described previously (Wiley et al. (2016) Cell Metab. 23: 303-314).
# [2] = tested on: naïve nonsenescent IMR-90 fibroblasts; experiment: Conditioned media from senescent cells applied to naive IMR-90 fibroblasts (Col1a2, ACTA2 qPCR); type: cell-based, human
# Description: RNA was extracted from cells or tissues using commercially available kits (Isolate II—Bioline for cells; Direct-zol—Zymo for tissues) according to the manufacturer's instructions. cDNA synthesis was performed using a High Capacity cDNA Reverse Transcription Kit (Thermo Fisher) according to the manufacturer's instructions. Quantitative PCR was performed on a LightCycler 480 II (Roche) using primers and probes designed for the Universal Probe Library. Primers and probes used for human transcripts were ACTB: 5′-CCAACCGCGAGAAGATGA (SEQ ID NO:1), 5′-TCCATCACGATGCCAGTG (SEQ ID NO:2), Probe #64; TUBA: 5′-cttcgtctccgccatcag (SEQ ID NO:3), 5′-ttgccaatctggacacca (SEQ ID NO:4), Probe #58; ALOX5: 5′-[…] (SEQ ID NO:5), 5′-[…] (SEQ ID NO:6), Probe #64; ALOX5AP: 5′-ggtctgcggggctacttt (SEQ ID NO:7), 5′-[…] (SEQ ID NO:8), Probe #18; ALOX12: 5′-[…] (SEQ ID NO:9), 5′-agccaggtcgtcaggag (SEQ ID NO:10), Probe #32; ALOX15: 5′-[…] (SEQ ID NO:11), 5′-[…] (SEQ ID NO:12), Probe #76; ALOX15B: 5′-[…] (SEQ ID NO:13), 5′-actgggaggcgaagaagg (SEQ ID NO:14), Probe #51; AKR1C1: 5′-catgcctgtcctgggattt (SEQ ID NO:15), 5′-[…] (SEQ ID NO:16), Probe #49; AKR1C2: 5′-ctatgcgcctgcagaggt (SEQ ID NO:17), 5′-[…] (SEQ ID NO:18), Probe #31; AKR1C3: 5′-[…] (SEQ ID NO:19), 5′-[…] (SEQ ID NO:20), Probe #78; CYSLTR2: 5′-[…] (SEQ ID NO:21), 5′-[…] (SEQ ID NO:22), Probe #18; DPEP1: 5′-gacgtcctgaggctggtg (SEQ ID NO:23), 5′-[…] (SEQ ID NO:24), Probe #9 (SEQ ID NO:25), ELOVL2: 5′-[…] (SEQ ID NO:26), 5′-[…] (SEQ ID NO:27), Probe #53; ELOVL4: 5′-catttggcccatggattc (SEQ ID NO:28), 5′-[…] (SEQ ID NO:29), Probe #31; ELOVL5: 5′-cccttccatgcgtccata (SEQ ID NO:30), 5′-[…] (SEQ ID NO:31), Probe #31; EPHX2: 5′-ttctgctggacaccctgaa (SEQ ID NO:32), 5′-[…] (SEQ ID NO:33), Probe #45; GPX4: 5′-ttcccgtgtaaccagttcg (SEQ ID NO:34), 5′-[…] (SEQ ID NO:35), Probe #36; LTA4H: 5′-ctgctctcacggtccagtc (SEQ ID NO:36), 5′-[…] (SEQ ID NO:37), Probe #64; LTBR2: 5′-[…] (SEQ ID NO:38), 5′-[…] (SEQ ID NO:39), Probe #33; LTC4S: 5′-[…] (SEQ ID NO:40), 5′-[…] (SEQ ID NO:41), Probe #18; PTGDS: 5′-[…] (SEQ ID NO:42), 5′-[…] (SEQ ID NO:43), Probe #36; PTGES: 5′-agagatgcctgcccacag (SEQ ID NO:44), 5′-tggccaccacgtacatctt (SEQ ID NO:45), Probe #4; PTGES2: 5′-[…] (SEQ ID NO:46), 5′-[…] (SEQ ID NO:47), Probe #49; PTGES3 (SEQ ID NO:48), 5′-[…] (SEQ ID NO:49), 5′-[…] (SEQ ID NO:50), Probe #48; PTGIS: 5′-[…] (SEQ ID NO:51), 5′-[…] (SEQ ID NO:52), Probe #45; PTGR1: 5′-atgatggggcagcaagtg (SEQ ID NO:53), 5′-cccatcagaaatggagtgc (SEQ ID NO:54), Probe #64; PTGS1: 5′-[…] (SEQ ID NO:55), 5′-gtggtggtccatgttcctg (SEQ ID NO:56), Probe #81; PTGS2: 5′-gatccccagggctcaaac (SEQ ID NO:57), 5′-[…] (SEQ ID NO:58), Probe #61; TBXAS1: 5′-[…] (SEQ ID NO:59), 5′-tgcctcccgtgtgaatct (SEQ ID NO:60), Probe #73; AREG: 5′-[…] (SEQ ID NO:61), 5′-[…] […]
# [3] = tested on: SASP factors; experiment: qPCR of SASP and PTGS mRNAs in non-senescent cells treated with eicosanoids; type: cell-based, human; conditions: 10 μM, for PGJ2 and 15d-PGJ2 most factors except VEGF and PDGF
# Description: RNA was extracted from cells or tissues using commercially available kits (Isolate II—Bioline for cells; Direct-zol—Zymo for tissues) according to the manufacturer's instructions. cDNA synthesis was performed using a High Capacity cDNA Reverse Transcription Kit (Thermo Fisher) according to the manufacturer's instructions. Quantitative PCR was performed on a LightCycler 480 II (Roche) using primers and probes designed for the Universal Probe Library. Primers and probes used for human transcripts were ACTB: 5′-CCAACCGCGAGAAGATGA (SEQ ID NO:1), 5′-TCCATCACGATGCCAGTG (SEQ ID NO:2), Probe #64; TUBA: 5′-cttcgtctccgccatcag (SEQ ID NO:3), 5′-ttgccaatctggacacca (SEQ ID NO:4), Probe #58; ALOX5: 5′-[…] (SEQ ID NO:5), 5′-[…] (SEQ ID NO:6), Probe #64; ALOX5AP: 5′-ggtctgcggggctacttt (SEQ ID NO:7), 5′-[…] (SEQ ID NO:8), Probe #18; ALOX12: 5′-[…] (SEQ ID NO:9), 5′-agccaggtcgtcaggag (SEQ ID NO:10), Probe #32; ALOX15: 5′-[…] (SEQ ID NO:11), 5′-[…] (SEQ ID NO:12), Probe #76; ALOX15B: 5′-[…] (SEQ ID NO:13), 5′-actgggaggcgaagaagg (SEQ ID NO:14), Probe #51; AKR1C1: 5′-catgcctgtcctgggattt (SEQ ID NO:15), 5′-[…] (SEQ ID NO:16), Probe #49; AKR1C2: 5′-ctatgcgcctgcagaggt (SEQ ID NO:17), 5′-[…] (SEQ ID NO:18), Probe #31; AKR1C3: 5′-[…] (SEQ ID NO:19), 5′-[…] (SEQ ID NO:20), Probe #78; CYSLTR2: 5′-[…] (SEQ ID NO:21), 5′-[…] (SEQ ID NO:22), Probe #18; DPEP1: 5′-gacgtcctgaggctggtg (SEQ ID NO:23), 5′-[…] (SEQ ID NO:24), Probe #9 (SEQ ID NO:25), ELOVL2: 5′-[…] (SEQ ID NO:26), 5′-[…] (SEQ ID NO:27), Probe #53; ELOVL4: 5′-catttggcccatggattc (SEQ ID NO:28), 5′-[…] (SEQ ID NO:29), Probe #31; ELOVL5: 5′-cccttccatgcgtccata (SEQ ID NO:30), 5′-[…] (SEQ ID NO:31), Probe #31; EPHX2: 5′-ttctgctggacaccctgaa (SEQ ID NO:32), 5′-[…] (SEQ ID NO:33), Probe #45; GPX4: 5′-ttcccgtgtaaccagttcg (SEQ ID NO:34), 5′-[…] (SEQ ID NO:35), Probe #36; LTA4H: 5′-ctgctctcacggtccagtc (SEQ ID NO:36), 5′-[…] (SEQ ID NO:37), Probe #64; LTBR2: 5′-[…] (SEQ ID NO:38), 5′-[…] (SEQ ID NO:39), Probe #33; LTC4S: 5′-[…] (SEQ ID NO:40), 5′-[…] (SEQ ID NO:41), Probe #18; PTGDS: 5′-[…] (SEQ ID NO:42), 5′-[…] […]
# [4] = tested on: bleomycin-induced fibrosis; conditions: administration; Kida 2016, Genovese 2005; cited from earlier work
smiles,measurement,setting,value
CC(c1cc2ccccc2s1)N(O)C(N)=O (stereo not shown) [zileuton],"ras-induced senescence (IL-6 secretion, EdU incorporation, colony formation)",[1],blunting
same,collagen expression induced by CM from senescent cells,"[2]; Day 2 CM, with or without TGF-beta, donor cells treated 24 h",prevented this effect
same,collagen expression induced by CM from senescent cells,[2]; Day 20 CM in the presence of TGF-beta,again prevented
same,smooth muscle actin expression (ACTA2),[2]; regardless of time point,no effect
CS(=O)(=O)Nc1ccc([N+](=O)[O-])cc1OC1CCCCC1 [NS-398],decline of ACTA2 induction at Day 20 relative to Day 2,[2]; Day 20 CM,abrogated this decline
CCCCC/C=C/C=C1/C(=O)C=C[C@@H]1C/C=C\CCCC(=O)O [15d-PGJ2],SASP factor mRNAs,[3],strongly induced
same,bleomycin-induced fibrosis,[4],attenuate
